Assay results as given in ChEMBL document CHEMBL1141458, “Prospects for metabotropic glutamate 1 receptor antagonists in the treatment of neuropathic pain” (J Med Chem, 2007).
Each block holds one compound with its values, some of them ahead of it.

Experiments:
Assay type in all cases: functional
[1] = target: T1, Metabotropic glutamate receptor 1 (Homo sapiens, UniProt Q13255); test: Antagonist activity at mGlu1 receptor
[2] = target: T2, Metabotropic glutamate receptor 2 (Homo sapiens, UniProt Q14416); test: Agonist activity at mGlu2 receptor
[3] = system: Mus musculus; test: Effect on pain in po dosed mouse in late phase of formalin assay
[4] = system: Rattus norvegicus; test: Effect on pain in ip dosed rat in late phase of formalin assay
[5] = system: Mus musculus; test: Effect on pain in po dosed mouse in early phase of formalin assay
[6] = target: T1, Metabotropic glutamate receptor 1; test: Antagonist activity at human mGlu1 receptor
[7] = system: Rattus norvegicus; test: Effect on carrageenan model of inflammatory pain in ip dosed rat
[8] = system: Rattus norvegicus; test: Effect on CFA-induced hyperalgesia in ip dosed rat
[9] = target: T2, Metabotropic glutamate receptor 2; test: Antagonist activity at mGlu2 receptor
[10] = target: T1, Metabotropic glutamate receptor 1; test: Antagonist activity at human mGlu1b receptor

T1 sequence (Q13255 whole entry): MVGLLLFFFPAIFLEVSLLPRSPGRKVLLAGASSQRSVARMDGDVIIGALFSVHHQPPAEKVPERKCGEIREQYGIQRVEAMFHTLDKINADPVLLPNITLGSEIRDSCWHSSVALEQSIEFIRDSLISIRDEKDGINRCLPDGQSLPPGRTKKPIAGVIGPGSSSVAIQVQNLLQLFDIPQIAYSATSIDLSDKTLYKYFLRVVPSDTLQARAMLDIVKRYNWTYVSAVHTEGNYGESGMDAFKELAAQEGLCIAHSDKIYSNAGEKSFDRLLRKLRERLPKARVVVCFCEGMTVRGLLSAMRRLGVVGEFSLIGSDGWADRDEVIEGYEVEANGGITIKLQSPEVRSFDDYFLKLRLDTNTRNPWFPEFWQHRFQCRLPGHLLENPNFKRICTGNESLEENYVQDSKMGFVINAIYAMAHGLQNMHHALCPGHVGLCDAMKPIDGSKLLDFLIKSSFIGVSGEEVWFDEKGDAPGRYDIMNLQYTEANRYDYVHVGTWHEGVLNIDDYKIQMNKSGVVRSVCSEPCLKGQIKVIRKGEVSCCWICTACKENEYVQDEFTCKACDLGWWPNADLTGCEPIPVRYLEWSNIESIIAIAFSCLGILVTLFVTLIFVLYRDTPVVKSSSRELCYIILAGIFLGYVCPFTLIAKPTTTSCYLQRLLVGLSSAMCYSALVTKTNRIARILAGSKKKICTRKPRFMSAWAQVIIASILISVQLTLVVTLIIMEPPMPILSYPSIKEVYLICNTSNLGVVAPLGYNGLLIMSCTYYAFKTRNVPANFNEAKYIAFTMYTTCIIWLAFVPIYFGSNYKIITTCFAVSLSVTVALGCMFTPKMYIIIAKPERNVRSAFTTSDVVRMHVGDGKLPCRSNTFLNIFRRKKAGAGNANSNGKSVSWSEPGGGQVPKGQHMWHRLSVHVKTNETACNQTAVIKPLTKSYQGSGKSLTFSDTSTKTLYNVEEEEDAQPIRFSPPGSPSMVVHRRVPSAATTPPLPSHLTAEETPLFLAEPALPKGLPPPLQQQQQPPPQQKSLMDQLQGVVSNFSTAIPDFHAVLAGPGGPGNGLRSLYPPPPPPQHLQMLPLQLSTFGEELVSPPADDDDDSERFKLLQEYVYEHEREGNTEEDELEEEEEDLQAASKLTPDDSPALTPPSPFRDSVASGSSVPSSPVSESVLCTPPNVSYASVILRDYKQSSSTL
T2 sequence (Q14416 whole entry): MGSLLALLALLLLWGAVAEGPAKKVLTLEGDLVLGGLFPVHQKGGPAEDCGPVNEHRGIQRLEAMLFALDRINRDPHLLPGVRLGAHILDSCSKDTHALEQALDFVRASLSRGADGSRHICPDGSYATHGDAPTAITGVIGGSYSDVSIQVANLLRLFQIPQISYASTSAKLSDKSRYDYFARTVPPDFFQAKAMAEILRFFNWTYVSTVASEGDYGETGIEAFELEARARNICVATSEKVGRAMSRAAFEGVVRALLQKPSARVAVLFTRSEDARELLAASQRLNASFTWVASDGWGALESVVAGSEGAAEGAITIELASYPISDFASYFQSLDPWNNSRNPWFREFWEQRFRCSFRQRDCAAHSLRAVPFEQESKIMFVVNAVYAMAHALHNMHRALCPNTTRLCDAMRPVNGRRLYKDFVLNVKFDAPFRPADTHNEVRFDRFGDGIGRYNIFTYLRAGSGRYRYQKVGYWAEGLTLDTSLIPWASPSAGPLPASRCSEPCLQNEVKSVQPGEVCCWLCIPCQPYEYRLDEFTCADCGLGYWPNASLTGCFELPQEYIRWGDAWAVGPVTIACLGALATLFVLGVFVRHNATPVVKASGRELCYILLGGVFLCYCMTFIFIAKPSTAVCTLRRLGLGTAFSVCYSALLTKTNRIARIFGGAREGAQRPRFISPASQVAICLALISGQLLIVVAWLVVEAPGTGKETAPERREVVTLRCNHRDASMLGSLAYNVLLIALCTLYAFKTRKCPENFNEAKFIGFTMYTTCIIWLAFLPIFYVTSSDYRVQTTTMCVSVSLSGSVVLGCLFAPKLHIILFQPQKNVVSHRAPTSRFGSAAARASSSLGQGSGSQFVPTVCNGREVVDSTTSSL

SMILES: COc1ccc(Nc2ncnc3ccc(OC)cc23)cc1
- IC50 [1]: 96 nM

SMILES: N[C@H](C(=O)O)c1ccc(O)c(C(=O)O)c1
- IC50 [1]: 40000 nM

SMILES: N[C@H](C(=O)O)c1ccc(C(=O)O)c(O)c1
- EC50 [2]: 48 µM

SMILES: N[C@H](C(=O)O)c1ccc(C(=O)O)cc1
- IC50 [1]: 10000 nM

SMILES: CCCOC(=O)c1[nH]c(C)c(C(=O)OC(C)C(C)(C)C)c1C (configuration not stated)
- ED50 [3]: 0.3 mg/kg
- ED50 [4]: 3 mg/kg
- ED50 [5]: 0.3 mg/kg

SMILES: Cc1c(C2=CCC(C(=O)N(C)C(C)C)CC2)nnn1-c1cccnc1F (configuration not stated)
- IC50 [1]: 6 nM

SMILES: CCc1ccc(-n2cnc3c(sc4nccc(N(C)C)c43)c2=O)cc1
- ED50 [7]: 11 µmol/kg
- ED50 [8]: 15 µmol/kg
- ED50 [4]: 15 µmol/kg

SMILES: C[C@@](N)(C(=O)O)c1ccc(C(=O)O)cc1
- IC50 [9]: 4.3 µM
- IC50 [1]: 4300 nM

Results, then the compound that gave them:

- IC50 [6]: 1.21 nM
SMILES: CO[C@H]1CC[C@@H](C(=O)c2ccc3nc4c(cc3c2)CCCO4)CC1

- IC50 [1]: 160 nM
SMILES: C=C1C[C@@H]2COC(=O)[C@]2(Cc2ccc3ccccc3c2)C1

- IC50 [1]: 1000 nM
SMILES: NC(CC1c2ccccc2Sc2ccccc21)(C(=O)O)C1CC(C(=O)O)C1 (configuration not stated)

- IC50 [10]: 6.6 µM
SMILES: CCOC(=O)C12CC1/C(=N\O)c1ccccc1O2 (configuration not stated)
